Test results as given in paper PMC5655388, “Nicotinamide-based diamides derivatives as potential cytotoxic agents: synthesis and biological evaluation” (Chemistry Central Journal, 2017).
≈ marks a conversion by molar mass, not a printed value.

Legend:
[1] = MTT in vitro cytotoxicity assay, MDCK normal cells; format: cell-based, canine; conditions: dog, MDCK normal kidney cells, mean ± SD
Method: (§1) All newly prepared nicotinamide-based diamides derivatives 4a–k and several similar diamides 4l–o were evaluated for their in vitro cytotoxic effects against NCI-H460 (Human large cell lung cancer cell line), A549 (Human lung cancer cell line), NCI-H1975 (Human lung cancer cell line), HL-7702 (Human normal liver cells), and MDCK (Madin-Darby canine kidney cells) cell lines by the modified MTT (3-(4,5-dimethylthiazol-2-yl)-2,5-diphenyl tetrazolium bromide) assay using 5-FU (5-Fluorouracil) as a positive control.
(§2) The in vitro cytotoxicity of the synthesized compounds against different human lung cancer cell lines (NCI-H460, A549, NCI-H1975) and normal cells (HL-7702 and MDCK) were measured with the 3-(4,5-dimethylthiazol-2-yl)-2,5-diphenyl tetrazolium bromide (MTT) assay. All the data of the experiment were analyzed with SPSS software, and the 50% inhibitory concentrations (IC50) of each compound for the different cell lines were determined. A control was run for each test, and all assays were performed in triplicate on three independent experiments, and measurement data were expressed as the mean ± SD.

[2] = test system: NCI-H1975 (Human lung cancer cell line); assay: MTT in vitro cytotoxicity assay, NCI-H1975; format: cell-based; conditions: for IC50: Homo sapiens, NCI-H1975 cells, MTT assay, mean ± SD; for Cytotoxic (inhibitory) activity at single concentration, NCI-H1975: 40 µg/mL, preliminary screen (Fig. 4), result in words
Method: as §1, §2

[3] = MTT in vitro cytotoxicity assay, HL-7702 normal cells; format: cell-based; conditions: human, HL-7702 normal liver cells, mean ± SD
Method: as §1, §2

[4] = test system: NCI-H460 (Human large cell lung cancer cell line); assay: MTT in vitro cytotoxicity assay, NCI-H460; format: cell-based; conditions: for IC50: Homo sapiens, NCI-H460 cells, MTT assay, mean ± SD; for Cytotoxic (inhibitory) activity at single concentration, NCI-H460: 40 µg/mL, preliminary screen (Fig. 4), result in words
Method: as §1, §2

[5] = test system: A549 (Human lung cancer cell line); assay: MTT in vitro cytotoxicity assay, A549; format: cell-based; conditions: for IC50: Homo sapiens, A549 cells, MTT assay, mean ± SD; for Cytotoxic (inhibitory) activity at single concentration, A549: 40 µg/mL, preliminary screen (Fig. 4), result in words
Method: as §1, §2

`NC(=O)c1cccnc1NC(=O)c1ccccc1Nc1cccc(C(F)(F)F)c1` [4a, 2-(2-((3-(Trifluoromethyl)phenyl)amino)benzamido)nicotinamide] gave an IC50 [1] greater than 40 µg/mL, an IC50 [2] greater than 40 µg/mL and an IC50 [3] greater than 40 µg/mL. For the same compound, the IC50 [4] was greater than 40 µg/mL and the IC50 [5] was greater than 40 µg/mL.

With `CNC(=O)c1cccnc1NC(=O)c1ccccc1Nc1cccc(C(F)(F)F)c1` [4b, N-Methyl-2-(2-((3-(trifluoromethyl)phenyl)amino)benzamido)nicotinamide] the IC50 [1] was greater than 40 µg/mL, the IC50 [2] was greater than 40 µg/mL and the IC50 [3] was greater than 40 µg/mL. For the same compound, the IC50 [4] was 36.7 ± 2.8 µg/mL (≈ 88.5 µM) and the IC50 [5] was greater than 40 µg/mL.

With `CC(O)CNC(=O)c1cccnc1NC(=O)c1ccccc1Nc1cccc(C(F)(F)F)c1` (centres unmarked) [4c, N-(2-Hydroxypropyl)-2-(2-((3-(trifluoromethyl)phenyl)amino)benzamido)nicotinamide] the IC50 [1] was 17 ± 0.84 µg/mL (≈ 37 µM), the “Cytotoxic (inhibitory) activity at single concentration, NCI-H1975” value (“Cytotoxic (inhibitory) activity … NCI-H1975” for short) [2] was “significant inhibitory activities” and the IC50 [2] was 27.2 ± 2.76 µg/mL (≈ 59.4 µM). For the same compound, the IC50 [3] was 19.7 ± 0.45 µg/mL (≈ 43 µM), the “Cytotoxic (inhibitory) activity at single concentration, NCI-H460” value (from here on “Cytotoxic (inhibitory) activity … NCI-H460”) [4] was “significant inhibitory activities” and the IC50 [4] was 20.6 ± 1.37 µg/mL (≈ 45 µM). For the same compound, the “Cytotoxic (inhibitory) activity at single concentration, A549” value (“Cytotoxic (inhibitory) activity … A549” for short) [5] was “significant inhibitory activities” and the IC50 [5] was 26.3 ± 3.22 µg/mL (≈ 57.4 µM).

For `CC(=O)CNC(=O)c1cccnc1NC(=O)c1ccccc1Nc1cccc(C(F)(F)F)c1` [4d, N-(2-Oxopropyl)-2-(2-((3-(trifluoromethyl)phenyl)amino)benzamido)nicotinamide], the IC50 [1] was 13.4 ± 0.29 µg/mL (≈ 29.5 µM), the “Cytotoxic (inhibitory) activity … NCI-H1975” value [2] was “significant inhibitory activities” and the IC50 [2] was 12.8 ± 1.59 µg/mL (≈ 28.1 µM). The IC50 [3] was 26.9 ± 0.95 µg/mL (≈ 58.9 µM), the “Cytotoxic (inhibitory) activity … NCI-H460” value [4] was “significant inhibitory activities” and the IC50 [4] was 4.07 ± 1.3 µg/mL (≈ 8.92 µM). The “Cytotoxic (inhibitory) activity … A549” value [5] was “significant inhibitory activities” and the IC50 [5] was 13.1 ± 2.45 µg/mL (≈ 28.7 µM).

For `Cc1cc(Cl)cc(C(N)=O)c1NC(=O)c1cccnc1Nc1cccc(C(F)(F)F)c1` [4e, N-(2-Carbamoyl-4-chloro-6-methylphenyl)-2-((3-(trifluoromethyl)phenyl)amino)nicotinamide], the IC50 [1] was greater than 40 µg/mL, the IC50 [2] was greater than 40 µg/mL and the IC50 [3] was greater than 40 µg/mL. The IC50 [4] was greater than 40 µg/mL, the “Cytotoxic (inhibitory) activity … A549” value [5] was “selective cytotoxicity” and the IC50 [5] was greater than 40 µg/mL.

`CNC(=O)c1cc(Cl)cc(C)c1NC(=O)c1cccnc1Nc1cccc(C(F)(F)F)c1` [4f, N-(4-Chloro-2-methyl-6-(methylcarbamoyl)phenyl)-2-((3-(trifluoromethyl)phenyl)amino)nicotinamide] gave an IC50 [1] greater than 40 µg/mL, an IC50 [2] greater than 40 µg/mL and an IC50 [3] greater than 40 µg/mL. For the same compound, the IC50 [4] was greater than 40 µg/mL and the IC50 [5] was greater than 40 µg/mL.

With `NC(=O)c1cccnc1NC(=O)c1cccnc1Nc1cccc(C(F)(F)F)c1` [4g, N-(3-Carbamoylpyridin-2-yl)-2-((3-(trifluoromethyl)phenyl)amino)nicotinamide] the IC50 [1] was 13 ± 1.27 µg/mL (≈ 32.5 µM), the “Cytotoxic (inhibitory) activity … NCI-H1975” value [2] was “significant inhibitory activities” and the IC50 [2] was 10.8 ± 2.22 µg/mL (≈ 27 µM). For the same compound, the IC50 [3] was 9.86 ± 0.34 µg/mL (≈ 24.6 µM), the “Cytotoxic (inhibitory) activity … NCI-H460” value [4] was “significant inhibitory activities” and the IC50 [4] was 9.17 ± 2.02 µg/mL (≈ 22.8 µM). The “Cytotoxic (inhibitory) activity … A549” value [5] was “significant inhibitory activities” and the IC50 [5] was 20.1 ± 0.48 µg/mL (≈ 50.1 µM).

For `CNC(=O)c1cccnc1NC(=O)c1cccnc1Nc1cccc(C(F)(F)F)c1` [4h, N-Methyl-2-(2-((3-(trifluoromethyl)phenyl)amino)nicotinamido)nicotinamide], the IC50 [1] was 11.1 ± 0.24 µg/mL (≈ 26.6 µM), the “Cytotoxic (inhibitory) activity … NCI-H1975” value [2] was “significant inhibitory activities” and the IC50 [2] was 12.4 ± 2.52 µg/mL (≈ 29.9 µM). For the same compound, the IC50 [3] was 11.6 ± 2.08 µg/mL (≈ 28 µM), the “Cytotoxic (inhibitory) activity … NCI-H460” value [4] was “significant inhibitory activities” and the IC50 [4] was 9.31 ± 2.66 µg/mL (≈ 22.4 µM). The “Cytotoxic (inhibitory) activity … A549” value [5] was “significant inhibitory activities” and the IC50 [5] was 17.2 ± 3.4 µg/mL (≈ 41.4 µM).

With `CC(O)CNC(=O)c1cccnc1NC(=O)c1cccnc1Nc1cccc(C(F)(F)F)c1` (centres unmarked) [4i, N-(2-Hydroxypropyl)-2-(2-((3-(trifluoromethyl)phenyl)amino)nicotinamido)nicotinamide] the IC50 [1] was 11.62 ± 0.06 µg/mL (≈ 25.3 µM), the “Cytotoxic (inhibitory) activity … NCI-H1975” value [2] was “significant inhibitory activities” and the IC50 [2] was 9.15 ± 1.64 µg/mL (≈ 19.9 µM). The IC50 [3] was 14.5 ± 2.19 µg/mL (≈ 31.6 µM), the “Cytotoxic (inhibitory) activity … NCI-H460” value [4] was “significant inhibitory activities” and the IC50 [4] was 13.1 ± 4.49 µg/mL (≈ 28.5 µM). For the same compound, the “Cytotoxic (inhibitory) activity … A549” value [5] was “significant inhibitory activities” and the IC50 [5] was 16.5 ± 3.53 µg/mL (≈ 36 µM).

Work on `NC(=O)c1cc2ccccc2cc1NC(=O)c1cccnc1Nc1cccc(C(F)(F)F)c1` [4j, N-(3-Carbamoylnaphthalen-2-yl)-2-((3-(trifluoromethyl)phenyl)amino)nicotinamide] yielded an IC50 [1] of 14.3 ± 0.66 µg/mL (≈ 31.7 µM), an IC50 [2] of 25.2 ± 3.35 µg/mL (≈ 55.9 µM) and an IC50 [3] of 18.1 ± 1.63 µg/mL (≈ 40.2 µM). For the same compound, the IC50 [4] was 38.4 ± 3.95 µg/mL (≈ 85.3 µM) and the IC50 [5] was 24.8 ± 3 µg/mL (≈ 55 µM).

`CNC(=O)c1cc2ccccc2cc1NC(=O)c1cccnc1Nc1cccc(C(F)(F)F)c1` [4k, N-(3-(Methylcarbamoyl)naphthalen-2-yl)-2-((3-(trifluoromethyl)phenyl)amino)nicotinamide] gave an IC50 [1] greater than 40 µg/mL, an IC50 [2] greater than 40 µg/mL and an IC50 [3] greater than 40 µg/mL. For the same compound, the IC50 [4] was greater than 40 µg/mL, the “Cytotoxic (inhibitory) activity … A549” value [5] was “selective cytotoxicity” and the IC50 [5] was 35.3 ± 2.19 µg/mL (≈ 76 µM).

With `Cc1cc(Cl)cc(C(N)=O)c1NC(=O)c1ccccc1Nc1cccc(C(F)(F)F)c1` [4l, 5-Chloro-3-methyl-2-(2-((3-(trifluoromethyl)phenyl)amino)benzamido)benzamide] the IC50 [1] was greater than 40 µg/mL, the IC50 [2] was greater than 40 µg/mL and the IC50 [3] was greater than 40 µg/mL. For the same compound, the IC50 [4] was greater than 40 µg/mL, the “Cytotoxic (inhibitory) activity … A549” value [5] was “selective cytotoxicity” and the IC50 [5] was greater than 40 µg/mL.

In the case of `CNC(=O)c1cc(Cl)cc(C)c1NC(=O)c1ccccc1Nc1cccc(C(F)(F)F)c1` [4m, 5-Chloro-N,3-dimethyl-2-(2-((3-(trifluoromethyl)phenyl)amino)benzamido)benzamide], the IC50 [1] is reported as 21.2 ± 3.59 µg/mL (≈ 46 µM), the “Cytotoxic (inhibitory) activity … NCI-H1975” value [2] is reported as “good inhibition activities” and the IC50 [2] is reported as 10.8 ± 1.02 µg/mL (≈ 23.4 µM). For the same compound, the IC50 [3] was 21.4 ± 1.79 µg/mL (≈ 46.4 µM), the “Cytotoxic (inhibitory) activity … NCI-H460” value [4] was “good inhibition activities” and the IC50 [4] was 6.85 ± 0.23 µg/mL (≈ 14.8 µM). For the same compound, the “Cytotoxic (inhibitory) activity … A549” value [5] was “good inhibition activities” and the IC50 [5] was 6.77 ± 0.86 µg/mL (≈ 14.7 µM).

`NC(=O)c1cc2ccccc2cc1NC(=O)c1ccccc1Nc1cccc(C(F)(F)F)c1` [4n, 3-(2-((3-(Trifluoromethyl)phenyl)amino)benzamido)-2-naphthamide] showed an IC50 [1] of 14.44 ± 0.01 µg/mL (≈ 32.1 µM), an IC50 [2] greater than 40 µg/mL and an IC50 [3] greater than 40 µg/mL. For the same compound, the IC50 [4] was greater than 40 µg/mL and the IC50 [5] was greater than 40 µg/mL.

Compound `CNC(=O)c1cc2ccccc2cc1NC(=O)c1ccccc1Nc1cccc(C(F)(F)F)c1` [4o, N-Methyl-3-(2-((3-(trifluoromethyl)phenyl)amino)benzamido)-2-naphthamide] has an IC50 [1] greater than 40 µg/mL, an IC50 [2] greater than 40 µg/mL and an IC50 [3] greater than 40 µg/mL. For the same compound, the IC50 [4] was greater than 40 µg/mL and the IC50 [5] was greater than 40 µg/mL.

For `O=c1[nH]cc(F)c(=O)[nH]1` [5-FU, 5-Fluorouracil, reference compound], the IC50 [1] was 8.65 ± 0.81 µg/mL (≈ 66.5 µM), the IC50 [2] was 24.8 ± 5.8 µg/mL (≈ 190 µM) and the IC50 [3] was 11.3 ± 1.67 µg/mL (≈ 87.3 µM). For the same compound, the IC50 [4] was 8.02 ± 2.35 µg/mL (≈ 61.7 µM) and the IC50 [5] was 37.5 ± 3.25 µg/mL (≈ 288 µM).
